# Results reported in patent EP3539977B1, “ENZYMES WITH CHLOROGENIC ACID ESTERASE ACTIVITY AND FERULOYL ESTERASE ACTIVITY” (SternEnzym GmbH & Co. KG, priority 2014, dated 2016).
# Values joined by “and” are separate entries in the source; they are usually repeats but may differ in a detail not shown here. Equal entries are not always repeated.
# Target: T1, UmChlE (Mycosarcoma maydis, UniProt A0A060S684, P492L)
# T1 construct: purification of the chlorogenic acid esterase UmChlE from culture supernatant of U. maydis was accomplished by three complementary separation steps; made in house; host or cells: Ustilago maydis itself (native producer), culture supernatant; Q Sepharose FF, preparative IEF, polyamide column
# Assay: Kinetic parameters of UmChlE from initial hydrolysis rates
# Format: biochemical, Ustilago maydis
# Settings: 0.005 - 1 mM substrate, 60 min, 37 °C, pH 7.5
# Experimental: Km and vmax values were calculated with non-linear regression using SigmaPlot 10.0 (Systat Software Inc., Chicago, USA). Blanks were carried out for all assays using water instead of enzyme. For calculation of kcat the molecular mass was determined using denaturing SDS-PAGE.
# Kinetic properties were determined from initial hydrolysis rates for the most preferred substrates chlorogenic acid, MFA and MpCA. […] Consequently, the catalytic efficiency (kca/Km), a good indicator for enzyme efficiency and specificity, was better for chlorogenic acid than for the two synthetic substrates.
smiles,measurement,setting,value
O=C(/C=C/c1ccc(O)c(O)c1)O[C@@H]1C[C@](O)(C(=O)O)C[C@@H](O)[C@H]1O [chlorogenic acid],Km,,19.6 µM
COC(=O)/C=C/c1ccc(O)c(OC)c1 [methyl ferulate],Km,,102 µM
COC(=O)/C=C/c1ccc(O)cc1 [methyl p-coumarate],Km,listed as MpCA,64.1 µM and 64 µM
